Experimental data reported in patent US12286401B2, “Small molecules that sensitize HIV-1 infected cells to antibody dependent cellular cytotoxicity” (THE TRUSTEES OF THE UNIVERSITY OF PENNSYLVANIA, priority 2018, dated 2025).

Tests used:
[1] = tested on: CH58TF infected primary CD4+ T-cells; experiment: HIV+ patient sera/plasma recognition of CH58TF infected primary CD4+ T-cells (flow cytometry cell-surface staining); format: cell-based, HIV-1; settings: Human immunodeficiency virus 1, T-cell, read-out: Fold Over DMSO (patient sera, n = 3)
Description: (§1) Cell-surface staining of primary CD4+ T cells from healthy HIV uninfected individuals or CEM-NKr cells is performed, as described in Prevost, “Influence of the Envelope gp120 Phe 43 Cavity on HIV-1 Sensitivity to Antibody-Dependent Cell-Mediated Cytotoxicity Responses,” 2017, J. Virol 91; Richard, “CD4 mimetics sensitize HIV-1-infected cells to ADCC,” 2015, Proc. Natl. Acad. Sci. USA, 112:E2687-2694; Richard, “Small CD4 Mimetics Prevent HIV-1 Uninfected Bystander CD4+ T Cell Killing Mediated by Antibody-dependent Cell-mediated Cytotoxicity,” 2016, EBioMedicine 3:122-134; Veillette, “The HIV-1 gp120 CD4-Bound Conformation Is Preferentially Targeted by Antibody-Dependent Cellular Cytotoxicity-Mediating Antibodies in Sera from HIV-1-Infected Individuals,” 2015, J. Virol., 89:545-551; Veillette, “Interaction with cellular CD4 exposes HIV-1 envelope epitopes targeted by antibody-dependent cell-mediated cytotoxicity,” 2014, J. Virol., 88:2633-2644; Richard, “Uninfected Bystander Cells Impact the Measurement of HIV-Specific Antibody-Dependent Cellular Cytotoxicity Responses,” 2018, MBio. 9(2): e00358-18; Richard, “BST-2 Expression Modulates Small CD4-Mimetic Sensitization of HIV-1-Infected Cells to Antibody-Dependent Cellular Cytotoxicity,” 2017, J. Virol. 91(11):e00219-17. Binding of HIV-1 infected cells by HIV+ sera (1:1000 dilution) or anti-Env Abs (such as 17b) is performed […] in vitro infection at 37° C. in presence of different concentrations of the MCG analogs or with equivalent volume of vehicle (DMSO). Cells infected with HIV-1 primary isolates are stained intracellularly for HIV-1 p24 using the Cytofix/Cytoperm Fixation/Permeabilization Kit (BD Biosciences, Mississauga, ON, Canada) and then fluorescent anti-p24 mAb (PE-anti-p24, clone KC57; Beckman Coulter/Immunotech, Hialeah, FL) (1:100 final concentration). The percentage of infected cells (p24^+ or GFP+ cells) is determined by gating the living cell population based on the viability dye staining. Samples are analyzed on an LSRII cytometer (BD Biosciences, Mississauga, ON, Canada) and data analysis is performed using FlowJo vX0.7 (Tree Star, Ashland, OR, USA).
HIV+ Patient Sera (n=3) Recognition of CH58TF Infected Primary CD4+ T-Cells
Staining with patient sera and 50 μM of compounds given as a fold change over DMSO (vehicle).
(§2) Briefly, Primary CD4 T cells isolated from PBMC were infected with HIV-1CH58TF for 48 hours. For cell surface staining, 5 μg/ml 17b (FIG. 15A) or 1:1000 diluted HIV+ plasma (n=15) (FIG. 15B) were used in the presence of the different MCG analogs (50 μM), (+)-BNM-III-170 or with an equivalent volume of vehicle (DMSO). An Alexa Fluor 647-conjugated anti-human IgG secondary Ab was then used for fluorescent labeling. For ADCC (FIG. 15C), infected cells were used as target cells in a FACS-based ADCC assay that measures the killing of infected (p24+ cells). See, Madani, 2016, J. Virol., 90:5031-5046. The assay determines susceptibility to ADCC mediated by a 1/1,000 dilution of plasma from 15 HIV-1-infected individuals in the presence of the different MCG analogs (50 μM), (+)-BNM-III-170 (50 μM) or with an equivalent volume of vehicle (DMSO). Correlation between cell-surface staining with HIV+ plasma and ADCC was calculated using the Spearman rank correlation (FIG. 15D).

[2] = tested on: HIV-1JR-FL EnvΔCT expressed at the surface of HOS cells; experiment: Cell-based ELISA (CBE), 17b readout; settings: MCG analogs 50 μM; BNM-III-170 5 μM; 2G12 and DMSO normalized
Description: Detection of trimeric HIV-1 Env at the surface of HOS cells was performed by cell-based ELISA, as described in Desormeaux, “The highly conserved layer-3 component of the HIV-1 gp120 inner domain is critical for CD4-required conformational transitions,” J. Virol. 87:2549-2562; Alsahafi, “Effects of the I559P gp41 change on the conformation and function of the human immunodeficiency virus (HIV-1) membrane envelope glycoprotein trimer,” 2015, PLoS One 10:e0122111; and Veillette, “Conformational evaluation of HIV-1 trimeric envelope glycoproteins using a cell-based ELISA assay,” 2014, J. Vis. Exp., 91:51995. To enhance cell-surface expression of HIV-1 EnvRF a stop codon was introduced to replace the codon for Gly 711, truncating the cytoplasmic tail (ACT). Briefly, HOS cells were seeded in T-75 flasks (3×10^6 cells per flask) and transfected the next day with 22.5 μg of Env-expressing plasmids (wild-type and mutants S375W, S375T, H66A, A582T/L587A, etc) using the standard polyethylenimine (PEI, Polyscience Inc, PA, USA) transfection method. Twenty-four hours after transfection, cells were plated in 384-wells plates (2×10^4 cells per well). One day later, cells were washed twice with blocking buffer (10 mg/mL non-fat dry milk, 1.8 mM CaCl2), 1 mM MgCl2, 25 mM Tris, pH 7.5 and 140 mM NaCl) and then incubated for 30 minutes at room temperature with different concentrations of MCG analogs or equivalent volume of vehicle (DMSO). Cells were then incubated for an additional 1 h at room temperature with anti-HIV-1 Env monoclonal antibodies recognizing CD4-induced gp120 epitopes (17b, A32), CD4-binding site gp120 epitopes (VRC03, VRC01, F105, and b12), gp120 V3 glycans (19b, PGT126, PGT122, and 10.1074), gp120 outer domain (2G12), and gp120-gp41 interface (PGT151 and VRC34) epitopes. All ligands were diluted in blocking buffer. A horseradish peroxidase-conjugated antibody specific for the Fc region of human or mouse IgG (Pierce) was then incubated with the samples for 45 minutes at room temperature. For all conditions, cells were washed 5 times with blocking buffer and 5 times with washing buffer (1.8 mM CaCl2), 1 mM MgCl2, 25 mM Tris, pH 7.5 and 140 mM NaCl). HRP enzyme activity was determined after the addition of 20 μl per well of a 1:1 mix of Western Lightning oxidizing and luminol reagents (Perkin Elmer Life Sciences). Light emission was measured with an LB 941 TriStar luminometer (Berthold Technologies) and analysis with Graph Pad software.
The data of Table 2 is given as the fold over BNM-III-170 (5 μM) of Cell-Based ELISA with MCG Analogs (50 μM)—17b readout, 2G12 and DMSO normalized.
To identify molecules able to expose vulnerable Env epitopes, a cell-based ELISA (CBE) assay was adapted, capable of measuring conformational changes of membrane-bound trimeric Env as described in Veillette, 2014, J. Vis. Exp. doi:10.3791/51995:51995; Haim, 2011, PLoS Pathog 7:e1002101, into a high-throughput screening (HTS) platform (FIG. 10A). Briefly, the cytoplasmic-tail deleted HIV-1JR-FL Tier-2/3 Env was expressed on the surface of HOS cells in a 384-well-plate format. The cytoplasmic tail of Env was deleted to enhance Env expression at the cell surface and therefore enhance the sensitivity of the CBE assay. See, Veilette and Haim, 2009, PLoS Pathog 5:e100036. Small molecules or, as a positive control, soluble (sCD4) were added to expose the HIV-1JR-FL EnvΔCT epitope that can be recognized by the CD4i antibody 17b. See, Wyatt, 1995, J. Virol. 69:5723-5733; Rizzuto, 1998, Science 280:1949-1953.
17b binding was detected by a horseradish peroxidase-conjugated (HRP) second antibody, and HRP enzyme activity was measured by Western Lightning oxidizing and luminal reagents. 17b binding in the presence of sCD4 was set as the control (FIG. 10B, blue dots), small molecules that enhanced 17b binding above 25% of the one induced by sCD4 were retested in quadruplicate and only one molecule (UM0059920) was deemed a true positive (FIG. 10B, red dots). […]

[3] = tested on: CH58TF infected primary CD4+ T-cells; experiment: Recognition of HIV-1 infected cells by 17b (flow cytometry cell-surface staining); format: cell-based; settings: Human immunodeficiency virus 1, T-cell, read-out: Fold Over DMSO (17b, n = 1)
Description: as §1, §2

[4] = Solubility in PBS; format: physicochemical; settings: Yes/NO

SMILES	fold induction at 50 µM [1]	Fold over BNM-III-170 - 17b binding (±0.05) [2]	fold induction at 50 µM [3]	Solubility (in PBS) [4]
CCS(=O)(=O)N1CCC[C@H](C(=O)Oc2ccc(Cl)c(F)c2)C1 [(S)-MCG-III-213-A02]	1.03	0.07 fold	1.07	Yes
CCS(=O)(=O)N1CCC[C@H](C(=O)Nc2ccc(Cl)c(Br)c2)C1 [(S)-MCG-III-085-C05]	1.04	0.26 fold	1.77	Yes
CCS(=O)(=O)N1CCC(C(=O)Nc2ccc(Cl)c(F)c2)C1 (stereo not shown) [MCG-III-157-A02]	1.64	0.27 fold		Yes
CS(=O)(=O)N1CCC[C@H](C(=O)Nc2ccc(Cl)c(Cl)c2)C1 [(S)-MCG-III-085-A03]	1.46	0.19 fold	3.34	Yes
CS(=O)(=O)N1CCC[C@H](C(=O)Nc2ccc(F)c(F)c2)C1 [(S)-MCG-III-085-A04]	1.31	0.10 fold	3	Yes
CCS(=O)(=O)N1CCC[C@H](C(=O)Nc2ccc(F)c(Cl)c2)C1 [(S)-MCG-III-085-C02]	1.19	0.20 fold	2.15	Yes
CCS(=O)(=O)N1CCNC(C(=O)Nc2ccc(Cl)c(F)c2)C1 (stereo not shown) [MCG-III-212-A02]	1.85	0.36 fold	3.95	Yes
CS(=O)(=O)N1CCCC(C(=O)Nc2ccc(Cl)c(F)c2)C1 (stereo not shown) [MCG-III-157-B01]	1.48	0.42 fold		Yes
CS(=O)(=O)N1CCC[C@H](C(=O)Nc2ccc(Cl)c(Br)c2)C1 [(S)-MCG-III-085-A05]	1.11	0.16 fold	2.15	Yes
